Results reported in article PMC9837035 (Nature Communications, 2023).
“And” between values parts separate entries of the source, which are not always exact repeats. Identical values can stand only once.

How the values were obtained:
[1] = system: rat myoblast cell line H9c2; assay: Cell viability assay (WST-8), H9c2; type: cell-based; conditions: control (0 μM) = 100
Experimental: (§1) A WST-8 (2-(2-methoxy-4-nitrophenyl)-3-(4-nitrophenyl)-5-(2,4-disulfophenyl)-2H-tetrazolium) assay using a Cell Counting Kit-8 (DOJINDO) was performed to measure cell viability using an EnSpire microplate reader (PerkinElmer).

mice = assay: Mouse acute toxicity assay, survival; type: in vivo; conditions: intravenous, 2-week observation
Experimental: All animal studies were approved by the Institutional Committee for Animal Experiments of the Institute of Microbial Chemistry, and were performed in accordance with relevant guidelines and regulations to minimize animal suffering. Four-week-old female ICR mice were purchased from Charles River Breeding Laboratories (Yokohama, Japan) and maintained in a specific pathogen-free barrier facility. […] Samples were dissolved in saline containing 10% DMSO and 1% Tween 80 and injected intravenously into mice.

[2] = Cell viability assay (WST-8), HUDEP-2; type: cell-based, human; conditions: human, HUDEP-2 cells, control (0 μM) = 100
Experimental: as §1

HUDEP-2 cells = assay: Cell viability assay (WST-8), HUDEP-2; type: cell-based, human; conditions: control (0 μM) = 100
Experimental: as §1

## COc1cc2c(NC3CCN(C(C)C)CC3)nc(N3CCC(F)(F)CC3)nc2cc1OCCCN1CCCC1 [UNC0642]
[1]; 0.039 μM
  cell viability in H9c2 cells: 113.444 and 97.977 and 82.062
[1]; 0.156 μM
  cell viability in H9c2 cells: 119.033 and 94.058 and 85.452
[1]; 0.625 μM
  cell viability in H9c2 cells: 120.242 and 96.207 and 89.831
[1]; 2.5 μM
  cell viability in H9c2 cells: 126.737 and 89.381 and 103.107
[1]; 10.0 μM
  cell viability in H9c2 cells: 69.940 and 117.826 and 118.079
mice; 1.5625 mg/kg
  Number of alive mice: 3/3
mice; 3.125 mg/kg
  Number of alive mice: 3/3
mice; 6.25 mg/kg
  Number of alive mice: 2/3
mice; 12.5 mg/kg
  Number of alive mice: 1/3
mice; 25 mg/kg
  Number of alive mice: 0/3
[2]; 0.00457247 μM
  viability at 0.00457247 μM: 97.1%
[2]; 0.0137174 μM
  viability at 0.0137174 μM: 87.4%
[2]; 0.0411523 μM
  viability at 0.0411523 μM: 86.5%
[2]; 0.123457 μM
  viability at 0.123457 μM: 92.1%
[2]; 0.37037 μM
  viability at 0.37037 μM: 85.8%
[2]; 1.11111 μM
  viability at 1.11111 μM: 85.2%
[2]; 3.33333 μM
  viability at 3.33333 μM: 54.8%
[2]; 10 μM
  viability at 10 μM: 8.77%
HUDEP-2 cells; 0.00457247 μM
  cell viability in HUDEP-2 cells: 98.5098 and 95.7411
HUDEP-2 cells; 0.0137174 μM
  cell viability in HUDEP-2 cells: 90.6667 and 93.356
HUDEP-2 cells; 0.0411523 μM
  cell viability in HUDEP-2 cells: 91.9216 and 91.6525
HUDEP-2 cells; 0.123457 μM
  cell viability in HUDEP-2 cells: 105.098 and 92.3339
HUDEP-2 cells; 0.37037 μM
  cell viability in HUDEP-2 cells: 89.4118 and 91.9932
HUDEP-2 cells; 1.11111 μM
  cell viability in HUDEP-2 cells: 93.8039 and 89.2675
HUDEP-2 cells; 3.33333 μM
  cell viability in HUDEP-2 cells: 61.4902 and 56.2181
HUDEP-2 cells; 10 μM
  cell viability in HUDEP-2 cells: 12.549 and 12.2658
